The values below come from patent US20160158317A1, “Antimicrobial Peptide Variants and Polynucleotides Encoding Same” (Adenium Biotech A/S, priority 2010, published 2016).

Where a SMILES comes first, the peptide text is derived from it. Bridges are numbered along the chain shown (N, C = ends).

This series is described as follows: Determination of the protein binding (90% serum, 30 kDa filter, HPLC). The settings on record: serum. It is filed as in vitro ADME. The protocol:
Protein binding assays were performed as follows. The purified peptides were mixed with 90% serum and centrifuged through a 30 kDa filter. The ultra-filtrate and the non filtrated serum samples were quantified by HPLC measurements and the protein binding was subsequently calculated.
For the molecule `CC(C)[C@@H]1NC(=O)[C@H](CCCNC(=N)N)NC(=O)[C@H](Cc2c[nH]c3ccccc23)NC(=O)[C@@H](NC(=O)[C@H](Cc2ccccc2)NC(=O)CN)CSSC[C@@H](C(=O)N[C@@H](CC(N)=O)C(=O)O)NC(=O)[C@H](CCCNC(=N)N)NC(=O)[C@H](CCCNC(=N)N)NC(=O)[C@H](Cc2ccc(O)cc2)NC(=O)[C@@H]2CSSC[C@H](NC1=O)C(=O)N[C@@H](C)C(=O)N[C@@H](Cc1ccc(O)cc1)C(=O)N[C@@H](CO)C(=O)N[C@@H](CC(N)=O)C(=O)NCC(=O)N[C@@H](CCCCN)C(=O)N[C@@H](CCCNC(=N)N)C(=O)N[C@@H](C(C)C)C(=O)N2` [compound 425] (H-GFCWRVCAYSNGKRVCYRRCN-OH; disulfide 3-20, 7-16 (inferred); N-terminus and C-terminus assumed), the unbound share (fraction unbound) is 0.31. Then `CC(C)[C@@H]1NC(=O)CNC(=O)[C@H](CC(N)=O)NC(=O)[C@H](CCCNC(=N)N)NC(=O)[C@H](CCCNC(=N)N)NC(=O)[C@H](C)NC(=O)[C@@H]2CSSC[C@H](NC(=O)[C@H](C(C)C)NC(=O)[C@H](CCCNC(=N)N)NC1=O)C(=O)N[C@@H](Cc1ccc(O)cc1)C(=O)N[C@@H](CCCNC(=N)N)C(=O)N[C@@H](CCCNC(=N)N)C(=O)N[C@H](C(=O)N[C@@H](CC(N)=O)C(=O)O)CSSC[C@H](NC(=O)[C@H](Cc1ccccc1)NC(=O)CN)C(=O)N[C@@H](Cc1c[nH]c3ccccc13)C(=O)N[C@@H](CC(N)=O)C(=O)N[C@@H](C)C(=O)N2` [compound 407] (H-GFCWNACARRNGVRVCYRRCN-OH; disulfide 3-20, 7-16 (inferred); N-terminus and C-terminus assumed), with 0.12; and `CC(C)[C@@H]1NC(=O)CNC(=O)[C@H](CC(N)=O)NC(=O)[C@H](CCCNC(=N)N)NC(=O)[C@H](Cc2ccc(O)cc2)NC(=O)[C@H](C(C)C)NC(=O)[C@@H]2CSSC[C@H](NC(=O)[C@H](C(C)C)NC(=O)[C@H](CCCNC(=N)N)NC1=O)C(=O)N[C@@H](Cc1ccc(O)cc1)C(=O)N[C@@H](CCCNC(=N)N)C(=O)N[C@@H](CCCNC(=N)N)C(=O)N[C@H](C(=O)N[C@@H](CC(N)=O)C(=O)O)CSSC[C@H](NC(=O)[C@H](Cc1ccccc1)NC(=O)CN)C(=O)N[C@@H](Cc1c[nH]c3ccccc13)C(=O)N[C@@H](Cc1ccc(O)cc1)C(=O)N[C@@H](Cc1c[nH]c3ccccc13)C(=O)N2` [compound 20] (H-GFCWYWCVYRNGVRVCYRRCN-OH; disulfide 3-20, 7-16 (inferred); N-terminus and C-terminus assumed), with 0.01. Then `CC(C)[C@@H]1NC(=O)CNC(=O)[C@H](CC(N)=O)NC(=O)[C@H](CCCNC(=N)N)NC(=O)[C@H](Cc2ccc(O)cc2)NC(=O)[C@H](C(C)C)NC(=O)[C@@H]2CSSC[C@H](NC(=O)[C@H](C(C)C)NC(=O)[C@H](CCCNC(=N)N)NC1=O)C(=O)N[C@@H](Cc1ccc(O)cc1)C(=O)N[C@@H](CCCNC(=N)N)C(=O)N[C@@H](CCCNC(=N)N)C(=O)N[C@H](C(=O)N[C@@H](CC(N)=O)C(=O)O)CSSC[C@H](NC(=O)[C@H](Cc1ccccc1)NC(=O)CN)C(=O)NCC(=O)N[C@@H](CCCNC(=N)N)C(=O)N[C@@H](C(C)C)C(=O)N2` [compound 61] (H-GFCGRVCVYRNGVRVCYRRCN-OH; disulfide 3-20, 7-16 (inferred); N-terminus and C-terminus assumed), with 0.28; and `CC(C)[C@@H]1NC(=O)[C@H](Cc2c[nH]cn2)NC(=O)[C@H](Cc2c[nH]c3ccccc23)NC(=O)[C@@H](NC(=O)[C@H](Cc2ccccc2)NC(=O)CN)CSSC[C@@H](C(=O)N[C@@H](CC(N)=O)C(=O)O)NC(=O)[C@H](CCCNC(=N)N)NC(=O)[C@H](CCCNC(=N)N)NC(=O)[C@H](Cc2ccc(O)cc2)NC(=O)[C@@H]2CSSC[C@H](NC1=O)C(=O)N[C@@H](Cc1c[nH]cn1)C(=O)N[C@@H](Cc1ccc(O)cc1)C(=O)N[C@@H](CCCNC(=N)N)C(=O)N[C@@H](CC(N)=O)C(=O)N[C@@H](CO)C(=O)N[C@@H](C(C)C)C(=O)N[C@@H](CCCNC(=N)N)C(=O)N[C@@H](C(C)C)C(=O)N2` [compound 219] (H-GFCWHVCHYRNSVRVCYRRCN-OH; disulfide 3-20, 7-16 (inferred); N-terminus and C-terminus assumed), with 0.01.
